Where a name gives a salt, the structure may show the parent alone.
Columns and labels:
[1] = target: T1, PIM1 serine/threonine kinase (Homo sapiens, UniProt P11309); assay: PIM1 serine/threonine kinase inhibitory effect; format: biochemical; conditions: PIM1 serine/threonine kinase activity; ATP 40 μM; 30° C., 30 minutes
T1 construct: purchased Carna Bioscience, Inc
Protocol: Each test substance was prepared to 10 mM with dimethylsulfoxide (DMSO), and further diluted with DMSO so as to have concentrations of 1000, 300, 100, 30, 10, 3, 1, 0.3, 0.1, 0.03, 0.01, and 0.001 μM. Moreover, each dilution was further diluted 33.3-fold with an assay buffer to prepare a test substance solution. The composition of the assay buffer was 50 mM HEPES (pH 7.0), 0.02% NaN3, 0.01% Bovine Serum Albumin, 0.1 mM Orthovanadate, 1 mM Dithiothreitol, and 5 mM MgCl2.
5 μL of each test substance solution was added to 384-well plates (n=2), and then 2.5 μL of a substrate solution (substrate 3-biotin (Cisbio Bioassays SAS), final concentration in the reaction solution: 0.5 μM) and 2.5 μL of an ATP solution (in the cases of PIM1, 2, 3, the final concentrations in the reaction solutions were 40, 2, and 10 μM, respectively) were added, 5 μL of each of PIM1, 2, 3 serine/threonine kinase solutions (Carna Bioscience, Inc., the final concentrations in the reaction solutions were 0.15, 1.6, and 0.25 μg/ml, respectively) was finally added, and the mixture was reacted at 30° C. for 30 minutes. The test substance concentrations in the reaction solutions are 10000, 3000, 1000, 300, 100, 30, 10, 3, 1, 0.3, 0.1, and 0.01 nM.
Thereafter, 15 μL of each detection solution (62.5 nM Streptavidin-XL665 (Cisbio Bioassays SAS), […] STK antibody-Cryptate (Cisbio Bioassays SAS), 50 mM HEPES (pH 7.0), 0.8 M KF, 0.1% Bovine Serum Albumin, 20 mM ethylenediaminetetraacetic acid) was added to each well. After stirring, the mixture was reacted at 30° C. for 1 hour. Absorbance (OD620, OD665) at 620 and 665 nm was measured with a microplate reader (SpectraMax M5e, Molecular Devices, LLC).
Non-linear regression analysis was performed by an SAS system (SAS Institute Inc.) using the ratio (OD665/OD620) of the measured absorbance to calculate a test substance concentration (IC50) that inhibits PIM1 serine/threonine kinase activity by 50%.

[2] = target: PIM1 transgenic cells (Ba/F3) (Homo sapiens, UniProt P11309); assay: Proliferation inhibitory effect on PIM1 transgenic cells; format: cell-based, mouse; conditions: proliferation inhibition, 72 hours, Cell Counting Kit-8, read-out: PIM1 IC50
Sequence of PIM1 transgenic cells (Ba/F3) (P11309 whole entry, stated change not applied): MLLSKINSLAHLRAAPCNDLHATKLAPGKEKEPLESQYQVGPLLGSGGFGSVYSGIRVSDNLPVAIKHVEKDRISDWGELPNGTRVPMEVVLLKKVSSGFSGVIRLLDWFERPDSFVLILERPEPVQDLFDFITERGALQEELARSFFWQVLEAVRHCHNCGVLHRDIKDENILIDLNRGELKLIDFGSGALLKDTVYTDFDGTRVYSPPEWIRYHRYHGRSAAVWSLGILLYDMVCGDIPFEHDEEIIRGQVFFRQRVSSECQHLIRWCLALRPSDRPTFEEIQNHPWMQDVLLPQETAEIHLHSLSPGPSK
From the text: Human PIM1, 2, and 3 genes were inserted into the multi-cloning sites of retrovirus expression vectors pMYs-IRES-GFP, respectively, to prepare gene transfer vectors. Then, each gene transfer vector was introduced into packaging cells PLAT-E derived from a human fetal kidney cell line in the logarithmic growth phase, using a transfection reagent (FuGENE6, Promega Corporation). Since the culture supernatant of PLAT-E after gene transfer contained virus particles for gene transfer, the culture supernatant was collected and used as a medium for gene transfer. The medium for gene transfer was added to a plate coated with RetroNectin, and the plate was incubated to attach the virus particles to the plate. Then, a mouse pro-B cell line Ba/F3 in the logarithmic growth phase was seeded on the plate and infected with the virus to prepare PIM1, 2, or 3 transgenic cells that proliferate in a PIM 1, 2, or 3-dependent manner. The expression of PIM1, 2, or 3 protein in each cell was confirmed by Western blotting.
Each test substance was prepared to 10 mM with dimethylsulfoxide (DMSO), and diluted with DMSO so as to have concentrations of 3000, 1000, 300, 100, 30, 10, 3, and 1 μM. Moreover, each dilution was further diluted 10-fold with distilled water to prepare a test substance solution.
PIM1, 2, 3-expressing cells were seeded on a 96-well plate, and each test substance solution prepared the next day was added such that final concentrations were 10000, 3000, 1000, 300, 100, 30, 10, 3, and 1 nM. 72 hours after the addition, 10 μL of Cell Counting Kit-8 (DOJINDO LABORATORIES) was added to each well. After incubation for 1 to 4 hours, absorbance OD450 at 450 nm was measured. In addition, absorption OD650 at 650 nm as a reference wavelength was measured.
OD450-OD650 for each condition was calculated, and then the inhibition rates when OD450-OD650 of negative control (DMSO only) and OD450-OD650 of Blank (without cells) were set to 0% and 100%, respectively, were calculated. Then, non-linear regression analysis was performed for logarithmic dose and inhibition rate using a two-parameter logistic model to estimate IC50 values.

T1 sequence (P11309 whole entry): as the sequence (P11309 whole entry, stated change not applied) above

| Compound | IC50 [1] [nM] | GI50 [2] [nM] |
| --- | --- | --- |
| NCCCCNc1cc(-c2n[nH]c(=O)o2)ccc1C(F)(F)F [Example 1, 5-{3-[(4-aminobutyl)amino]-4-(trifluoromethyl)phenyl}-1,3,4-oxadiazol-2(3H)-one hydrochloride] | 15 | 1900 |
| NCCCCCNc1cc(-c2n[nH]c(=O)o2)ccc1C(F)(F)F [Example 3, 5-{3-[(5-aminopentyl)amino]-4-(trifluoromethyl)phenyl}-1,3,4-oxadiazol-2(3H)-one hydrochloride] | 11 | 7900 |
| NCCCCCCNc1cc(-c2n[nH]c(=O)o2)ccc1C(F)(F)F [Example 4, 5-{3-[(6-aminohexyl)amino]-4-(trifluoromethyl)phenyl}-1,3,4-oxadiazol-2(3H)-one] | 50 | 3000 |
| CC(CCCCN)Nc1cc(-c2n[nH]c(=O)o2)ccc1C(F)(F)F (centres unmarked) [Example 5, 5-{3-[(6-aminohexan-2-yl)amino]-4-(trifluoromethyl)phenyl}-1,3,4-oxadiazol-2(3H)-one hydrochloride] | 11 | 500 |
| NCC1CCN(c2cc(-c3n[nH]c(=O)o3)ccc2Cl)CC1 [Example 6, 5-{3-[4-(aminomethyl)piperidin-1-yl]-4-chlorophenyl}-1,3,4-oxadiazol-2(3H)-one] | 59 | 3600 |
| NCCC1CCN(c2cc(-c3n[nH]c(=O)o3)ccc2C(F)(F)F)CC1 [Example 10, 5-{3-[4-(2-aminoethyl)piperidin-1-yl]-4-(trifluoromethyl)phenyl}-1,3,4-oxadiazol-2(3H)-one hydrochloride] | 6.6 | 630 |
| NCCC1CCCN(c2cc(-c3n[nH]c(=O)o3)ccc2C(F)(F)F)C1 (centres unmarked) [Example 11, 5-{3-[3-(2-aminoethyl)piperidin-1-yl]-4-(trifluoromethyl)phenyl}-1,3,4-oxadiazol-2(3H)-one hydrochloride] | 13 | 330 |
| NCCC1CCN(c2cc(-c3n[nH]c(=O)o3)cc3[nH]ncc23)CC1 [Example 12, 5-{4-[4-(2-aminoethyl)piperidin-1-yl]-1H-indazol-6-yl}-1,3,4-oxadiazol-2(3H)-one dihydrochloride] | 13 | 5100 |
| CC(C)(CN)C1CCN(c2cc(-c3n[nH]c(=O)o3)ccc2C(F)(F)F)CC1 [Example 13, 5-{3-[4-(1-amino-2-methylpropan-2-yl)piperidin-1-yl]-4-(trifluoromethyl)phenyl}-1,3,4-oxadiazol-2(3H)-one] | 30 | 540 |
| NCC(O)C1CCN(c2cc(-c3n[nH]c(=O)o3)ccc2C(F)(F)F)CC1 (centres unmarked) [Example 14, 5-{3-[4-(2-amino-1-hydroxyethyl)piperidin-1-yl]-4-(trifluoromethyl)phenyl}-1,3,4-oxadiazol-2(3H)-one hydrochloride] | 12 | 1300 |
| O=c1[nH]nc(-c2ccc(C(F)(F)F)c(N3CCC4(CCNCC4)CC3)c2)o1 [Example 15, 5-[3-(3,9-diazaspiro[5.5]undecan-3-yl)-4-(trifluoromethyl)phenyl]-1,3,4-oxadiazol-2(3H)-one hydrochloride] | 15 | 600 |
| O=c1[nH]nc(-c2ccc(C(F)(F)F)c(N3CCC4(CC3)CNC4)c2)o1 [Example 16, 5-[3-(2,7-diazaspiro[3.5]nonan-7-yl)-4-(trifluoromethyl)phenyl]-1,3,4-oxadiazol-2(3H)-one hydrochloride] | 53 | 2400 |
| NCc1ccc(-c2cc(-c3n[nH]c(=O)o3)ccc2C(F)(F)F)cc1 [Example 20, 5-[4′-(aminomethyl)-6-(trifluoromethyl)[1,1′-biphenyl]-3-yl]-1,3,4-oxadiazol-2(3H)-one hydrochloride] | 33 | 4500 |
| NCCc1ccc(-c2cc(-c3n[nH]c(=O)o3)ccc2C(F)(F)F)cc1 [Example 22, 5-[4′-(2-aminoethyl)-6-(trifluoromethyl)[1,1′-biphenyl]-3-yl]-1,3,4-oxadiazol-2(3H)-one hydrochloride] | 27 | 2200 |
| C[C@@H](CN)Oc1ccc(-c2cc(-c3n[nH]c(=O)o3)ccc2C(F)(F)F)cc1 [Example 24, 5-[4′-{[(2S)-1-aminopropan-2-yl]oxy}-6-(trifluoromethyl)[1,1′-biphenyl]-3-yl]-1,3,4-oxadiazol-2(3H)-one hydrochloride] | 39 | 870 |
| O=c1[nH]nc(-c2ccc(C(F)(F)F)c(CCC3CCNCC3)c2)o1 [Example 26, 5-{3-[2-(piperidin-4-yl)ethyl]-4-(trifluoromethyl)phenyl}-1,3,4-oxadiazol-2(3H)-one hydrochloride] | 12 | 910 |
| N[C@H]1CC[C@H](CCc2cc(-c3n[nH]c(=O)o3)ccc2C(F)(F)F)CC1 [Example 27, 5-[3-{2-[(1r,4s)-4-aminocyclohexyl]ethyl}-4-(trifluoromethyl)phenyl]-1,3,4-oxadiazol-2(3H)-one hydrochloride] | 4.1 | 200 |
| N[C@H]1CO[C@H](CCc2cc(-c3n[nH]c(=O)o3)ccc2C(F)(F)F)OC1 [Example 28, 5-[3-{2-[(2r,5r)-5-amino-1,3-dioxan-2-yl]ethyl}-4-(trifluoromethyl)phenyl]-1,3,4-oxadiazol-2(3H)-one hydrochloride] | 38 | 3500 |
| O=c1[nH]nc(-c2ccc(C(F)(F)F)c(C#CC3CCNCC3)c2)o1 [Example 29, 5-{3-[(piperidin-4-yl)ethynyl]-4-(trifluoromethyl)phenyl}-1,3,4-oxadiazol-2(3H)-one hydrochloride] | 18 | 1100 |
| O=c1[nH]nc(-c2ccc(C(F)(F)F)c(/C=C/C3CCNCC3)c2)o1 [Example 30, 5-{3-[(E)-2-(piperidin-4-yl)ethenyl]-4-(trifluoromethyl)phenyl}-1,3,4-oxadiazol-2(3H)-one hydrochloride] | 24 | 970 |
| O=c1[nH]nc(-c2ccc(Cl)c(NC3CCNCC3)c2)o1 [Example 31, 5-{4-chloro-3-[(piperidin-4-yl)amino]phenyl}-1,3,4-oxadiazol-2(3H)-one hydrochloride] | 70 | 3300 |
| N[C@H]1CC[C@H](Nc2cc(-c3n[nH]c(=O)o3)ccc2Cl)CC1 [Example 32, 5-(3-{[(1r,4r)-4-aminocyclohexyl]amino}-4-chlorophenyl)-1,3,4-oxadiazol-2(3H)-one] | 5.7 | 410 |
| N[C@H]1CC[C@@H](Nc2cc(-c3n[nH]c(=O)o3)ccc2Cl)CC1 [Example 33, 5-(3-{[(1s,4s)-4-aminocyclohexyl]amino}-4-chlorophenyl)-1,3,4-oxadiazol-2(3H)-one hydrochloride] | 6.2 | 730 |
| C[C@H](Nc1cc(-c2n[nH]c(=O)o2)ccc1C(F)(F)F)C12CC(N)(C1)C2 [Example 185, 5-[3-{[(1S)-1-(3-aminobicyclo[1.1.1]pentan-1-yl)ethyl]amino}-4-(trifluoromethyl)phenyl]-1,3,4-oxadiazol-2(3H)-one] |  | 87 |

Reference: US20220024921A1, “1,3,4-OXADIAZOLONE COMPOUND AND PHARMACEUTICAL” (NIPPON SHINYAKU CO., LTD., priority 2018, published 2022)
